Experimental data: the METLIN SMRT retention time set (Domingo-Almenara et al. 2019)

Test: gradient 5% acetonitrile 3 min, to 50% in 2 min, to 85% in 15 min, held 3 min, 100 µL/min
Settings: column: Zorbax Extend-C18 2.1 x 50 mm; eluents: water / acetonitrile, 0.1% formic acid
Procedure, shortened: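 Data were gathered over 3 months by HPLC coupled to a quadrupole time-of-flight mass spectrometer, operated in positive and negative ionization mode. Mixtures of ~100 pure standards ran on a Zorbax Extend-C18 column (2.1 × 50 mm, 1.8 μm) at 100 μL/min, with water and acetonitrile each containing 0.1% formic acid and dead and dwell volumes of 40 μL and 900 μL. Retention time was read from adduct peaks picked by computer and checked manually.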

| RP-LC retention time [s] | SMILES |
| --- | --- |
| 655 | Cc1ccn2cc(-c3ccc(C)c(NS(=O)(=O)c4ccccc4)c3)nc2c1 |
| 735 | CCOc1ccc(NC(=O)N2CCC(n3c(-c4ccoc4)nc4cccnc43)C2)cc1 (stereo not drawn) |
| 1040 | COC(=O)c1ccc(-c2nc3cnccn3c2Nc2ccc(C)c(Br)c2)cc1 |
| 890 | CCc1noc(-c2cc(=O)n(CC(=O)NCc3ccccc3F)c3ccccc23)n1 |
| 1230 | O=c1cc(-c2ccncc2)nc(N2CCCC2)n1Cc1cccc(F)c1 |
| 630 | O=C1NCCCn2cc(S(=O)(=O)Nc3ccccc3)cc21 |
| 788 | COc1ccc(NC(=O)Cn2cccc(-c3nc(-c4ccc(OC)c(OC)c4)no3)c2=O)c(OC)c1 |
| 874 | Cc1csc(-c2cc(S(=O)(=O)Nc3cc(F)ccc3F)cn2CC(=O)N2CCCC2)n1 |
| 634 | Cc1nc([C@@H]2CCCN2C(=O)CCc2ccccc2)n[nH]1 |
| 591 | COCCn1c(C2CCN(S(=O)(=O)c3ccc(C)c(Cl)c3)C2)nc2ccncc21 (stereo not drawn) |
| 631 | CN1CCN(C(=O)CN2C(=O)C3CCCCN3c3ccc(S(=O)(=O)N4CCCC4)cc32)CC1 (stereo not drawn) |
| 790 | Cc1cc(C)c(-c2noc(C)n2)c(NC(=O)c2ccc(Cl)cc2)n1 |
| 865 | COc1ccc(C)cc1NC(=O)N1CCC(c2nc(C(=O)N3CCCC3)c(C)o2)CC1 |
| 840 | COc1ccc(NC(=O)N2CCC(c3nc(C(=O)N(C)C)c(C)o3)CC2)cc1Cl |
| 743 | Cc1ccc2c(Nc3ccccc3C)c(-c3nc(C)no3)cnc2n1 |
| 695 | COc1ccc(NC(=O)Cn2cnc3nc4c(cc3c2=O)CCCC4)cc1 |
| 996 | CCCCOc1ccc(S(=O)(=O)N2CCN(c3cc(C)nc(NC4CCCCC4)n3)CC2)cc1 |
| 800 | COc1ccc(-c2nc(C)cc3nn(CC(=O)Nc4cccc(OC)c4)c(=O)n23)cc1 |
| 1180 | Cc1ccc(C)c(N2CCN(C(=O)c3ccc4c(c3)N(C)C(=O)C3CCCCN43)CC2)c1 (stereo not drawn) |
| 816 | COc1ccc(S(=O)(=O)N2CCC(c3noc(-c4ccncc4)n3)C2)cc1 (stereo not drawn) |
| 847 | Cc1oc(C2CCN(C(=O)c3cc4ccccc4[nH]3)CC2)nc1C(=O)N1CCSCC1 |
| 835 | Cc1cc(C)cc(NC(=O)C2CCCN(c3ccc4cc(S(=O)(=O)N5CCCC5)ccc4n3)C2)c1 (stereo not drawn) |
| 840 | CCn1ccc(C(=O)N2CCCC2c2cccc(F)c2)n1 (stereo not drawn) |
| 674 | Cc1nc(CCNC(=O)[C@H]2CCCN2C(=O)c2ccc(Cl)cc2)cs1 |
| 552 | COc1ccc(-c2nnc3n2CCN(Cc2cn(C)nc2C)C3)cc1 |
| 571 | CC(C)Oc1ccc(CN2CC(N(Cc3ccncc3)S(C)(=O)=O)C2)cc1 |

| RP-LC retention time [s] | SMILES |
| --- | --- |
| 1150 | O=C(CSc1nnc(-c2ccc(Br)cc2)o1)OCc1ccccc1 |
| 956 | Cn1cnc2c(C(=O)Nc3ccc(F)cc3)nn(-c3ccc(Cl)cc3)c2c1=O |
| 799 | Cc1cc2c(N3CCCC(C(=O)N4CCN(c5ccc(Cl)cc5)CC4)C3)nccc2s1 (stereo not drawn) |
| 680 | CC(=O)c1ccc(NC(=O)Cn2c(-c3cnccn3)nc(C)c(C)c2=O)cc1 |
| 852 | Cc1ccc(-c2cc(C(F)(F)F)on2)cc1S(=O)(=O)N1CCCCC1C (stereo not drawn) |
| 701 | CN1CCN(c2nc(Nc3ccc4c(c3)OCO4)c3cnn(-c4ccccc4)c3n2)CC1 |
| 742 | CCn1cnc2ccc(-c3noc(Cc4ccc(F)cc4)n3)cc21 |
| 883 | O=C(Cc1csc2nc(-c3ccccc3)cn12)Nc1ccc(Br)cc1F |
| 1120 | COc1ccc2cccc(NC(=O)c3csc(C)n3)c2n1 |
| 680 | COc1cc(-c2nc3ccc(Cl)cn3c2Nc2ccc3c(c2)OCCO3)ccc1O |
| 1030 | O=C(NCc1nc(-c2cccc(-c3csc(C4CC4)n3)c2)no1)c1ccccc1 |
| 1240 | CCOc1ccc(-c2noc(-c3nn(-c4ccc(F)cc4)c(=O)c4ccccc34)n2)cc1OC |
| 621 | CCn1cc(CCN2CCC(C(=O)Nc3ccccc3C)CC2)c2cccnc21 |
| 646 | CCC(=O)Nc1c(C)noc1/C=C\c1ccc(S(=O)(=O)N2CCN(c3ccccn3)CC2)cc1 |
| 956 | COc1ccc(CNC(=O)c2ccc3c(=O)n(Cc4ccccc4)c(N4CCCC4)nc3c2)cc1 |
| 757 | C=Cc1ccc(CN2CCCN(c3ncccc3-c3nc(C4CC4)no3)CC2)cc1 |
| 918 | CN(C)S(=O)(=O)c1ccc2c(c1)N(CC(=O)NCCc1ccccc1)C(=O)C1CCCCN21 (stereo not drawn) |
| 746 | Cc1ccc2nc(NC3=NCN(CCc4cccs4)CN3)nc(C)c2c1 |
| 730 | CCOC(=O)c1ccc(NC(=O)COc2ccc(-c3nnc4n3CCCC4)cc2)cc1 |
| 895 | CCc1noc(NC(C)=O)c1-c1ccc(OC)c(S(=O)(=O)N2CCN(c3ccccc3)CC2)c1 |
| 627 | Cc1cc2nn(CC(=O)Nc3cc(F)ccc3C)c(=O)n2c(-c2ccccc2)n1 |
| 689 | Cc1cc2c(=O)n(CC(=O)Nc3ccc(F)cc3)c3cccnc3n2n1 |
| 890 | CC(C)n1cnc(S(=O)(=O)N2CCCC(C(=O)Nc3cccc(C(F)(F)F)c3)C2)c1 (stereo not drawn) |
| 1460 | Cc1ccc(Nc2cc(C)nc(N3CCN(C(=O)Nc4cccc(C)c4)CC3)n2)cc1 |
| 714 | O=C(NC1CCN(c2cc(-c3ccc(F)cc3)[nH]n2)C1)c1ccc2cc[nH]c2c1 (stereo not drawn) |

More lines, now with the values behind:

| SMILES | RP-LC retention time [s] |
| --- | --- |
| CC(=O)Nc1ccc(CCc2nc3ccc(C(=O)NCc4ccco4)cc3[nH]2)cc1 | 606 |
| CC1=C(c2ccccc2)S(=O)(=O)N=C1N1CCCN(C(=O)CC2CCCC2)CC1 | 861 |
| COC(=O)CNC(=O)N1CCCCCC1c1ccc(C)cc1 (stereo not drawn) | 852 |
| CC(=O)Oc1ccc2ccc(=O)oc2c1OC(C)=O | 856 |
| COc1c(C=O)c2c(c(OC)c1OC)-c1ccc(OC)c(=O)cc1[C@@H](NC(C)=O)CC2 | 725 |
| CC(C)n1cnc2cc(CNC(=O)c3ccoc3)ccc21 | 574 |
| CC(=O)N1CCCN(C2=NS(=O)(=O)C(c3ccc(C)c(C)c3)=C2C)CC1 | 630 |
| O=C(NCc1ccc(F)cc1)NCc1cccn1Cc1cccc(F)c1 | 680 |
| Cc1sc(C)c(S(=O)(=O)NCc2ccc3c(c2)OCO3)c1-c1cc(C(F)(F)F)on1 | 1120 |
| C[C@H]1CC[C@@H]2[C@@H](C)[C@H]3[C@H](C[C@H]4[C@@H]5CC[C@H]6C[C@@H](O)CC[C@]6(C)[C@H]5CC[C@]34C)N2C1 | 763 |
| CCC1CN1P1(=O)OCC(C)([N+](=O)[O-])CO1 (stereo not drawn) | 721 |
| Cc1sc(NC(=O)C2CC2)nc1-c1ccc2c(c1)N(C)C(=O)CO2 | 811 |
| CCOC(=O)N1CCN(C(=O)Nc2nc(CC(=O)NC3CCCCCC3)cs2)CC1 | 704 |
| CCN(CC)C(=O)c1cc(=O)[nH]c2c(C)cccc12 | 657 |
| Cn1ncc2c3ccccc3n(CC(=O)NCCN3CCCCC3)c2c1=O | 595 |
| CC(NC(=O)Cn1cc(C(=O)C(=O)N2CCOCC2)c2ccccc21)c1ccc2c(c1)OCCCO2 (stereo not drawn) | 787 |
| CN(CC1CCOCC1)C(=O)Nc1ccc(F)c(Cl)c1 | 797 |
| CCC(C)NC(=O)CC1CCN(C(=O)c2[nH]c(C)c(C(=O)OC(C)C)c2C)CC1 (stereo not drawn) | 775 |
| CCCCSc1cc(C)nc(N)n1 | 698 |

| SMILES | RP-LC retention time [s] |
| --- | --- |
| COC(CNC(=O)c1cc(C)nn1-c1ccccc1)OC | 659 |
| O=c1[nH]cc(S(=O)(=O)NC2CCCC2)c(=O)[nH]1 | 600 |
| Cc1ccc(C(=O)N2C[C@@H]3C[C@H](NS(C)(=O)=O)[C@H]2C3)cc1F | 671 |
| Cc1ccc2[nH]c3c(c2c1)CCNC31C(=O)Nc2ccccc21 (stereo not drawn) | 643 |
| Cc1cccc(C)c1NC(=O)Cn1cnc2onc(C)c2c1=O | 731 |
| O=C(Cn1nc2n(c1=O)CCCCC2)N1CCN(c2ccc(F)cc2)CC1 | 701 |
| O=C(Nc1ccc(C2(C(=O)O)CCC2)cc1)C1CC1 | 710 |
| CCS(=O)(=O)N1CCCc2cc(C(=O)NCCC3=CCCCC3)ccc21 | 987 |
| Cc1cc(CN2CCC(CNC(=O)NCc3cccs3)CC2)c(C)o1 | 578 |
| Cc1cccc(CNC(=O)C2(C)Oc3cccnc3N(C(C)C)C2=O)c1 (stereo not drawn) | 1120 |
| COCCN1CCCCc2cc(C(=O)NC3CCS(=O)(=O)C3)sc21 (stereo not drawn) | 734 |
| Cc1ccccc1NC(=O)C1(C)Oc2cccnc2N(C)C1=O (stereo not drawn) | 778 |
| CCOc1ccc(CNC(=O)COc2nc(CC)nc3oc(C)c(C)c23)cc1 | 993 |
| O=C(NCC1CCOCC1)Nc1ccc(Cl)cc1 | 705 |
| Cc1nn(-c2ccc(N3CCOCC3)nn2)c(C)c1CCC(=O)NCCCc1ccco1 | 692 |
| CCOC(=O)c1[nH]c(C)c(C(=O)C(C)N(C(=O)c2ccc(Cl)cc2)C2CC2)c1C (stereo not drawn) | 978 |
| Cc1ccc(Cl)cc1N1CCN(C(=O)c2[nH]c(C)c(S(=O)(=O)N3CCC(C)CC3)c2C)CC1 | 1190 |
| CCc1nc2cc(N3CCC(C(=O)NC(C)C)CC3)cnc2nc1CC | 704 |
